Experimental data as given in patent US8076342B2, “Malonate salt of 4-((1R,3S)-6-chloro-3-phenylindan-1-yl)-1,2,2-trimethylpiperazine and uses of same” (priority 2003, dated 2011).
Entries after “also recorded” stand apart in the source; their conditions may differ.

How the values were obtained:
[1] = Hygroscopicity by Dynamic Vapour sorption (DVS); type: physicochemical
Source text: The hygroscopicity of the fumarate salt, the succinate salt (the alpha form) and the malonate salt was investigated by Dynamic Vapour sorption (DVS). […] The malonate absorbs gradually up to 1% of water when the relative humidity is raised to 95%, but with no hysteresis.

[2] = Stability of the salts (heat/humidity, heat, light; HPLC impurity peak area); type: physicochemical
Description: The stability of the salts was investigated under the following circumstances:
Heat, 60° C./80% RH: Samples were stored at 60° C. with 80% RH for one week. Then they were dissolved and analysed by HPLC.
Heat, 90° C.: Samples (˜10 mg) were stored at 90° C. in closed containers containing 1 droplet of water. Then they were dissolved and analysed by HPLC.
Light: Samples were placed in the light cabinet at 250 w/m^2 for 24 hours. Then they were dissolved and analysed by HPLC.
The area of peaks in the chromatograms besides the peaks corresponding to the substance or the acid was summarized.

5-HT2 receptor = conditions: cited from earlier work
D1 and D2 = conditions: cited from earlier work
rats = conditions: cited from earlier work
dopamine D2 receptor = dopamine D2 receptor (Homo sapiens, UniProt P14416); conditions: cited from earlier work
dopamine D1 receptor = conditions: cited from earlier work
[3] = 90° C., closed containers containing 1 droplet of water

Sequence of dopamine D2 receptor (P14416 whole entry, species assumed): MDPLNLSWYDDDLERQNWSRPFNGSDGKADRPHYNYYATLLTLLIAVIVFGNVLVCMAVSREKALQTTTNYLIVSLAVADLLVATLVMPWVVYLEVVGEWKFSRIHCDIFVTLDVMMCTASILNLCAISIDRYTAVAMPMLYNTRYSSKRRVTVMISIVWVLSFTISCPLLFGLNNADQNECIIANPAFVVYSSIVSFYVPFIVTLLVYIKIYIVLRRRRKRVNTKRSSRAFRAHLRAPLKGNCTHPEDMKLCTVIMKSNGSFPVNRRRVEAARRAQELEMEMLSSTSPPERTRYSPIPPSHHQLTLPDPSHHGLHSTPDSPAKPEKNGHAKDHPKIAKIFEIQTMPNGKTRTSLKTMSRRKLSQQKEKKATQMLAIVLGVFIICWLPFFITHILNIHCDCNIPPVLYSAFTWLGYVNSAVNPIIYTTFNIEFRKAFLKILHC

With `CN1CCN([C@@H]2C[C@@H](c3ccccc3)c3ccc(Cl)cc32)CC1(C)C.O=C(O)CC(=O)O` (relative stereo) [Malonate 1:1, trans-4-((1R,3S)-6-chloro-3-phenylindan-1-yl)-1,2,2-trimethylpiperazinium (I) hydrogen malonate] the Hygroscopicity ([1]; DVS) was “non-hygroscopic”, the “Hysteresis of water sorption” value ([1]; DVS) was “no hysteresis; also recorded: no hysterhesis” and the Water absorbed ([1]; relative humidity raised to 95%) was “up to 1%”. The “Sum of impurity peak area %” value ([2]; 60° C./80% RH, one week) was 0%, the “Stability compared with the fumarate salt” value ([2]; 60° C./80% relative humidity (RH)) was “more stable” and the “Stability compared with the fumarate salt” value ([2]; 90° C.) was “less stable”. For the same compound, the “Sum of impurity peak area %” value [2, 3] was 6.19%, the “Sum of impurity peak area %” value ([2]; Light, 250 w/m^2 for 24 hours) was 0.06% and the “Stability compared with the fumarate salt” value ([2]; exposed to light) was “similar”.
In the case of `CN1CCN([C@@H]2C[C@@H](c3ccccc3)c3ccc(Cl)cc32)CC1(C)C.O=C(O)CCC(=O)O` (relative stereo) [Succinate 1:1 alpha, trans-4-((1R,3S)-6-chloro-3-phenylindan-1-yl)-1,2,2-trimethyl-piperazinium (I) hydrogen succinate], the Hygroscopicity ([1]; DVS) is reported as “non-hygroscopic”, the “Stability compared with the fumarate salt and the hydrogen malonate salt” value [2] is reported as “more stable” and the “Sum of impurity peak area %” value ([2]; 60° C./80% RH, one week) is reported as 0%. For the same compound, the “Sum of impurity peak area %” value [2, 3] was 0%, the “Sum of impurity peak area %” value ([2]; Light, 250 w/m^2 for 24 hours) was 0% and the Degradation ([2]; all stability conditions) was “does not show any degradation at all”.
In the case of `CN1CCN([C@@H]2C[C@@H](c3ccccc3)c3ccc(Cl)cc32)CC1(C)C.O=C(O)/C=C/C(=O)O` (relative stereo) [Fumarate, trans-4-((1R,3S)-6-chloro-3-phenylindan-1-yl)-1,2,2-trimethylpiperazinium (I) hydrogen fumarate], the Hygroscopicity ([1]; DVS) is listed as “non-hygroscopic”, the 5-HT2 antagonist potency (5-HT2 receptor) is listed as “potent” and the “Sum of impurity peak area %” value ([2]; 60° C./80% RH, one week) is listed as 0.07%. For the same compound, the “Sum of impurity peak area %” value [2, 3] was 0.09%, the “Sum of impurity peak area %” value ([2]; Light, 250 w/m^2 for 24 hours) was 0.06% and the “D1 versus D2 antagonist potency in vivo” value (D1 and D2) was “equipotent”. The Induction of catalepsy (rats) was “does not induce catalepsy”, the D2 antagonist potency (dopamine D2 receptor) was “potent” and the D1 antagonist potency (dopamine D1 receptor) was “potent”.
